Experimental data from patent US20070244190A1, “Neobritannilactone B and acetyl neobritannilactone B” (priority 2006, published 2007).

Assays:
AGS cells [1] = experiment: Morphological changes by light microscopy; format: cell-based, human; settings: 10 μM, within 24 h, FIG. 5
Description: FIG. 5 provides light microscopic images showing the morphological changes of AGS cells, including the induction of apoptotic bodies from AGS cells, induced by NAB and ANAB.
(§1) Physiological cell death is characterized by apoptotic morphology, including chromatin condensation, membrane blebbing, internucleosome degradation of DNA, and apoptotic body formation. Nucleosomal DNA ladders visible on agarose gel after staining with ethidium bromide are typical of apoptotic cell samples. To investigate whether the cytotoxic effects of NAB and ANAB observed in AGS cells were due to the presence of apoptotic cell death, cells were treated with […] (0-25 μM) for 24 h and DNA fragmentation analyses were performed. […] FIG. 5.

[2] = test system: human AGS gastric carcinoma cell lines; experiment: Cell survival assay (Example 3), trypan blue exclusion; format: cell-based; settings: 24 h treatment, Example 3, FIG. 2, read-out: IC50, cell viability
Experimental: Cell Survival Assay. The human AGS gastric carcinoma cell lines (CCRC 60102) were maintained as described in Section 8.2 above. For assays, cells (5×10^4) were plated in 35-mm Petri dishes. The next day, the medium was changed and NAB and ANAB were added. Control cells were treated with DMSO to a final concentration of 0.05% (v/v). At the end of incubation, cells were harvested for cell count using a hemocytometer.
To test the effects of NAB and ANAB on cell viability, human gastric carcinoma cells were treated with different concentrations of NAB and ANAB. After 24 h treatment, the number of live cells was determined by trypan blue exclusion assay. FIG. 2. Both compounds were potent inhibitors of cell viability.

HT-29 cells [3] = experiment: Apoptosis (sub-G1) by flow cytometry; format: cell-based, human; settings: 24 h, mean ± SE
Experimental: (§2) Cell Culture and Chemicals. The COLO 205 and HT 29 cell lines were isolated from human colon adenocarcinoma (ATCC CCL-222 and HTB-38); human promyelocytic leukemia (HL-60) cells were obtained from American Type Culture Collection (Rockville, Md.). The human AGS gastric carcinoma cell lines (CCRC 60102) were obtained from the Food Industry Research and Development Institute (Hsinchu, Taiwan). Cell lines were grown at 37° C. in 5% CO2 dioxide atmosphere in RPMI for COLO 205, HT-29, and HL-60 cells and DMEM/F12 for AGS cells, all supplemented with 10% heat-inactivated fetal bovine serum (GIBCO BRL, Grand Island, N.Y.) (100 units/mL of penicillin, 100 μg/mL of streptomycin), and 2 mM L-glutamine (GIBCO BRL). Selected compounds were dissolved in dimethyl sulfoxide (DMSO). Propidium iodide was obtained from Sigma Chemical Co. (St. Louis, Mo.).
(§3) Flow Cytometry. Human cancer cells (2×10^5) were cultured in 60-mm Petri dishes and incubated for 24 h. The apoptotic cells (sub-G1) in the selected compounds and treated cells were measured by flow cytometry analysis. Then cells were harvested, washed with PBS, resuspended in 200 μL of PBS, and fixed in 800 μL of iced 100% ethanol at −20° C. After being left to stand overnight, the cell pellets were collected by centrifugation, resuspended in 1 mL of hypotonic buffer (0.5% Triton X-100 in PBS and 0.5 μg/mL RNase), and incubated at 37° C. for 30 min. Then 1 mL of propidium iodide solution (50 μg/mL) was added and the mixture was allowed to stand on ice for 30 min. Fluorescence emitted from the propidium iodide-DNA complex was quantitated after excitation of the fluorescent dye by FACScan cytometry (Becton Dickinson, San Jose, Calif.).
(§4) The compounds isolated from Inula were tested for their effects on the apoptotic ratio in human cancer cells.

AGS cells [4] = experiment: Apoptosis (sub-G1) by flow cytometry; format: cell-based, human; settings: 24 h, mean ± SE
Experimental: as §2, §3, §4

HL-60 cells [5] = experiment: Apoptosis (sub-G1) by flow cytometry; format: cell-based, human; settings: 24 h, mean ± SE
Experimental: as §2, §3, §4

COLO 205 cells [6] = experiment: Apoptosis (sub-G1) by flow cytometry; format: cell-based, human; settings: 24 h, mean ± SE
Experimental: as §2, §3, §4

HT-29 cells [7] = experiment: Cell viability, trypan blue exclusion, 24 h; format: cell-based; settings: HT-29, 24 h, mean ± SE, n=3, read-out: IC50, growth of human cancer cells
Experimental: as §2
(§5) Determination of Cell Viability. Human cancer cells were treated either with DMSO (0.01%) or the selected compounds (5-100 μM). Cell viability was determined at 24 h based on trypan blue exclusion assay. The viability percentage was calculated based on the percentage of unstained cells. Suspensions of cells were diluted 1:1 with 0.5% trypan blue solution. Stained and unstained cells were counted in a hemocytometer.

AGS cells [8] = experiment: Cell viability, trypan blue exclusion, 24 h; format: cell-based; settings: mean ± SE, n=3, read-out: IC50, growth of human cancer cells
Experimental: as §2, §5

HL-60 cells [9] = experiment: Cell viability, trypan blue exclusion, 24 h; format: cell-based; settings: HL-60, 24 h, mean ± SE, n=3, read-out: IC50, growth of human cancer cells
Experimental: as §2, §5

COLO 205 cells [10] = experiment: Cell viability, trypan blue exclusion, 24 h; format: cell-based; settings: COLO 205, 24 h, mean ± SE, n=3, read-out: IC50, growth of human cancer cells
Experimental: as §2, §5

AGS cells [11] = experiment: DNA fragmentation by agarose gel electrophoresis; format: cell-based, human; settings: 15 μM, 24 h, FIG. 4
Experimental: DNA Extraction and Electrophoresis Analysis. The AGS human cancer cells were harvested, washed with phosphate-buffered saline (PBS), and then lysed with digestion buffer containing 0.5% sarkosyl, 0.5 mg/mL proteinase K, 50 mM tris(hydroxy methyl)aminomethan (pH 8.0), and 10 mM EDTA at 56° C. overnight and treated with RNase A (0.5 μg/mL) for 3 h at 56° C. The DNA was extracted by phenol/chloroform/isoamyl (25:24:1) before loading and was analyzed by 2% agarose gel electrophoresis. The agarose gels were run at 50 V for 120 min in Tris-borate/EDTA electrophoresis buffer (TBE). Approximately 20 μg of DNA was loaded in each well and visualized under UV light, and photographed.
as §1

C=C1C(=O)O[C@H]2/C=C(\C)CC/C=C(\C)C[C@H](OC(C)=O)[C@@H]12 [Compound 4, acetyl neobritannilactone B]
morphological changes (AGS cells [1]): significant morphological changes and chromosomal condensation | IC50 [2]: 4.2 µM | apoptotic ratio (HT-29 cells [3]; HT-29, 5 μM): 20.38 ± .17% | apoptotic ratio (HT-29 cells [3]; HT-29, 10 μM): 47.56 ± 0.00% | apoptotic ratio (HT-29 cells [3]; HT-29, 25 μM): 69.70 ± .22% | apoptotic ratio (HT-29 cells [3]; HT-29, 25 μM, listed as ANAB): 69.70% | apoptotic ratio (HT-29 cells [3]; HT-29, 50 μM): 81.43 ± 1.46% | apoptotic ratio (HT-29 cells [3]; HT-29, 100 μM): 82.47 ± 2.06% | apoptotic ratio (AGS cells [4]; 5 μM): 6.16 ± 1.17% | apoptotic ratio (AGS cells [4]; 10 μM): 7.87 ± 3.03% | apoptotic ratio (AGS cells [4]; 25 μM): 9.89 ± 4.44% | apoptotic ratio (AGS cells [4]; 25 μM, listed as ANAB): 9.89% | apoptotic ratio (AGS cells [4]; 50 μM): 13.64 ± 0.28% | apoptotic ratio (AGS cells [4]; 100 μM): 43.11 ± 0.99% | apoptotic ratio (HL-60 cells [5]; HL-60, 5 μM): 22.93 ± 1.34% | apoptotic ratio (HL-60 cells [5]; HL-60, 10 μM): 39.71 ± 2.85% | apoptotic ratio (HL-60 cells [5]; HL-60, 25 μM): 95.17 ± 1.61% | apoptotic ratio (HL-60 cells [5]; HL-60, 25 μM, listed as ANAB): 95.17% | apoptotic ratio (HL-60 cells [5]; HL-60, 50 μM): 97.74 ± 0.44% | apoptotic ratio (HL-60 cells [5]; HL-60, 100 μM): 98.05 ± .30% | apoptotic ratio (COLO 205 cells [6]; COLO 205, 5 μM): 15.47 ± 1.69% | apoptotic ratio (COLO 205 cells [6]; COLO 205, 10 μM): 34.72 ± 2.72% | apoptotic ratio (COLO 205 cells [6]; COLO 205, 25 μM): 76.87 ± 2.39% | apoptotic ratio (COLO 205 cells [6]; COLO 205, 25 μM, listed as ANAB): 76.87% | apoptotic ratio (COLO 205 cells [6]; COLO 205, 50 μM): 96.92 ± 0.20% | apoptotic ratio (COLO 205 cells [6]; COLO 205, 100 μM): 98.66 ± 0.10% | IC50 (HT-29 cells [7]): 57 µM | IC50 (AGS cells [8]): 5.4 µM | IC50 (HL-60 cells [9]): 16.2 µM | IC50 (COLO 205 cells [10]): 14.7 µM | DNA fragmentation (DNA ladders) (AGS cells [11]): significant DNA ladders were observed

C=C1C(=O)OC2C=C(C)CCC=C(C)CC(O)C12 (stereo not drawn) [Compound 3, 4-hydroxy-3α,4,5,8,9,11α-hexahydro-6,10-dimethyl-3-methylene-cyclodeca[b]furan-2(3H)-one]
IC50 [2]: 7.6 µM | apoptotic ratio (HT-29 cells [3]; HT-29, 5 μM): 13.58 ± 0.87% | apoptotic ratio (HT-29 cells [3]; HT-29, 10 μM): 24.46 ± .88% | apoptotic ratio (HT-29 cells [3]; HT-29, 25 μM): 66.54 ± 1.58% | apoptotic ratio (HT-29 cells [3]; HT-29, 25 μM, listed as NAB): 66.54% | apoptotic ratio (HT-29 cells [3]; HT-29, 50 μM): 82.27 ± 1.68% | apoptotic ratio (HT-29 cells [3]; HT-29, 100 μM): 87.02 ± 0.30% | apoptotic ratio (AGS cells [4]; 5 μM): 9.55 ± 3.05% | apoptotic ratio (AGS cells [4]; 10 μM): 8.66 ± 0.80% | apoptotic ratio (AGS cells [4]; 25 μM): 11.78 ± 1.40% | apoptotic ratio (AGS cells [4]; 25 μM, listed as NAB): 11.78% | apoptotic ratio (AGS cells [4]; 50 μM): 15.95 ± 1.12% | apoptotic ratio (AGS cells [4]; 100 μM): 19.22 ± 0.57% | apoptotic ratio (HL-60 cells [5]; HL-60, 5 μM): 9.82 ± 1.90% | apoptotic ratio (HL-60 cells [5]; HL-60, 10 μM): 21.93 ± 2.81% | apoptotic ratio (HL-60 cells [5]; HL-60, 25 μM): 77.57 ± 7.06% | apoptotic ratio (HL-60 cells [5]; HL-60, 25 μM, listed as NAB): 77.54% | apoptotic ratio (HL-60 cells [5]; HL-60, 50 μM): 96.94 ± 0.57% | apoptotic ratio (HL-60 cells [5]; HL-60, 100 μM): 98.29 ± 0.15% | apoptotic ratio (COLO 205 cells [6]; COLO 205, 5 μM): 10.73 ± 2.31% | apoptotic ratio (COLO 205 cells [6]; COLO 205, 10 μM): 14.12 ± 1.06% | apoptotic ratio (COLO 205 cells [6]; COLO 205, 25 μM): 41.62 ± 6.34% | apoptotic ratio (COLO 205 cells [6]; COLO 205, 25 μM, listed as NAB): 41.62% | apoptotic ratio (COLO 205 cells [6]; COLO 205, 50 μM): 89.11 ± 1.47% | apoptotic ratio (COLO 205 cells [6]; COLO 205, 100 μM): 96.81 ± 0.51% | IC50 (HT-29 cells [7]): 56.1 µM | IC50 (AGS cells [8]): 21.4 µM | IC50 (HL-60 cells [9]): 27.4 µM | IC50 (COLO 205 cells [10]): 14.3 µM
